According to US20070185161A1, “Bicyclic substituted indole-derivative steroid hormone nuclear receptor modulators” (priority 2004, published 2007):

The compounds below were run against T1, human MR (Homo sapiens, UniProt P08235) (assay: Mineralocorticoid Receptor Binding Assay (Method 1)). Settings: [3H]-aldosterone, racemic mixture unless otherwise indicated.
T1 construct: The full length human MR gene is cloned from a human kidney or human brain cDNA library; made in house; host or cells: SF9 insect cells (baculovirus)
T1 sequence (P08235 1-984): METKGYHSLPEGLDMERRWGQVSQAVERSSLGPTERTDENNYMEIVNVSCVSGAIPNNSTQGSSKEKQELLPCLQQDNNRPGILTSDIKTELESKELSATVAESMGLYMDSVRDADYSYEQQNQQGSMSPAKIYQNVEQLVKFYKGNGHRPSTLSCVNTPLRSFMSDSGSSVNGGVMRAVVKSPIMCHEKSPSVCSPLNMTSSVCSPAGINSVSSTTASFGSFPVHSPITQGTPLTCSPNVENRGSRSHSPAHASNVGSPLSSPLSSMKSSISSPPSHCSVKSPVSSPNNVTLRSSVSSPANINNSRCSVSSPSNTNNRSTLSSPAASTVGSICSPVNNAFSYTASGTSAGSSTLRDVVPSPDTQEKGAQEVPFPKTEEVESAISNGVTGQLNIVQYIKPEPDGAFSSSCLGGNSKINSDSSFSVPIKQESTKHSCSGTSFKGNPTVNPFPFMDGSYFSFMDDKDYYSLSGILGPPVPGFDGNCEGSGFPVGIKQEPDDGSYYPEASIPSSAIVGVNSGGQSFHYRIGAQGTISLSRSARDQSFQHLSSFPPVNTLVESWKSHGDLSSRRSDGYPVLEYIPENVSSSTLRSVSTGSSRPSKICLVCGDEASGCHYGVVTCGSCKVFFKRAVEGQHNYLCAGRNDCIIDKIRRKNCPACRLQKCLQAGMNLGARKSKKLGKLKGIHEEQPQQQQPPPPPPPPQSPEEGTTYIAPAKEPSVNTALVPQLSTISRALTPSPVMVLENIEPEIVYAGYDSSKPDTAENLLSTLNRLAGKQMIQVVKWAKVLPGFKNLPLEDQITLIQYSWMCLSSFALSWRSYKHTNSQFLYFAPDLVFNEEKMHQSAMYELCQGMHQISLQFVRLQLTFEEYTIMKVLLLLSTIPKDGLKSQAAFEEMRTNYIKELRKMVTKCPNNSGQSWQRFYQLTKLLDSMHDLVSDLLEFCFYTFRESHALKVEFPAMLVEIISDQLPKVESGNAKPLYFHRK
Description: The full length human MR gene is cloned from a human kidney or human brain cDNA library. Briefly, using synthetic oligonucleotide primers (Eli Lilly and Company, Indianapolis) directed to nucleotides 20-54 and 3700-3666 of the human MR, polymerase chain reaction (PCR) is performed under standard conditions using a human cDNA library. The PCR reaction is performed in a final volume of 50 μl containing about 1 μl of a 50× stock solution of polymerase; about 1 μl of a 50× stock solution of dNTP; about 5 μl of an appropriate PCR buffer; about 1 μl of each primer; about 5 μl of a H. kidney or H. brain cDNA library; and about 36 μl of water. The reaction is allowed to denature for about 30 seconds at 95 degrees Celsius, anneal for about 30 seconds at 55 degrees Celsius, and extend for about 5 minutes at 72 degrees Celsius, the sequence being repeated for a total of about 35 cycles. The desired PCR product (3.68 Kb) is confirmed by gel electrophoresis and subsequently cut from the gel and stored at about −20 degrees Celsius until extraction. To extract the cDNA product from the agarose gel, the QIAEX II Gel Extraction protocol (QIAGEN, Inc.) is employed according to the manufacturer's instructions. Following extraction, the MR cDNA is cloned into an appropriate cloning vector (Zero Blunt TOPO PCR Cloning Kit (Invitrogen, Inc.) and a pAcHLT-baculovirus transfer vector (B.D./Pharminogen), then expressed in SF9 insect cells, essentially according to manufacturer's instructions. Sf9 cells are grown at a scale where gram quantity cell pellets are obtained for subsequent use in the MR binding assay. Harvested cell pellets are lysed by repeated freeze-thaw cycles (about 4) in a suitable lysis buffer then centrifuged at about 1×10^3 G (with the supernatant being saved for future assays).
MR binding assays are performed in a final total volume of about 250 μl containing about 20-25 μg of protein and 0.5 nM of [^3H]-aldosterone plus varying concentrations of test compound or vehicle. The assay binding buffer consists of 30 mM sodium molybdate, 30 mM of TRIS-HCl, 5 mM sodium phosphate, 5 mM sodium pyrophosphate, and about 10% glycerol, pH=7.5.
Briefly, assays are prepared at RT in 96-well Falcon 3072 plates, each well containing 210 μl of binding buffer, 10 μl of [^3H]-aldosterone, 10 μl of test compound/vehicle, and 20 μl of the resuspended receptor protein extract. Incubations are carried out at 4 degrees Celsius with shaking for about 16 hours. 200 μl aliquots of each incubation are filtered onto Millipore HA 0.45 micron 96-well filter plates, pre-moistened with cold 30 mM TRIS-HCl. The filter plates are suctioned dry with vacuum and immediately washed 3× with cold 30 mM TRIS-HCl. The plates are then punched out and the amount of receptor-ligand complex is determined by liquid scintillation counting using 4 ml of Ready Protein Plus™ liquid scintillation cocktail.
IC50 values (defined as the concentration of test compound required to decrease [^3H]-aldosterone binding by 50%) are then determined. Ki values for each respective test compound can then be calculated by application of the Cheng-Prusoff equation as described in Cheng et al., Relationship Between The Inhibition Constant (Ki) and The Concentration of Inhibitor Which Causes 50% Inhibition (IC50) of an Enzymatic Reaction, Biochem. Pharmacol., 22: 3099-31088; (1973).

Row | Structure (SMILES) | Ki
1 | CCC1(c2c[nH]c3c(NS(C)(=O)=O)cccc23)CCc2cc(F)ccc21 (racemic) [Example 1, N-[3-(1-ethyl-5-fluoro-indan-1-yl)-1H-indol-7-yl]-methanesulfonamide] | ≤ 500 nM
2 | CC1(c2c[nH]c3c(NS(C)(=O)=O)cccc23)CCc2cc(F)ccc21 (racemic) [Example 21, N-[3-(5-Fluoro-1-methyl-indan-1-yl)-1H-indol-7-yl]-methanesulfonamide] | ≤ 500 nM
3 | CC1(c2c[nH]c3c(NS(C)(=O)=O)cccc23)CCc2cc(F)cc(F)c21 (racemic) [Example 22, N-[3-(5,7-Difluoro-1-methyl-indan-1-yl)-1H-indol-7-yl]-methanesulfonamide] | ≤ 500 nM
4 | CCC1(c2c[nH]c3c(NS(C)(=O)=O)cccc23)CCc2cc(F)cc(F)c21 (racemic) [Example 23, N-[3-(1-Ethyl-5,7-difluoro-indan-1-yl)-1H-indol-7-yl]-methanesulfonamide] | ≤ 500 nM
5 | CC1(c2c[nH]c3c(NS(C)(=O)=O)cccc23)CCCc2cc(F)ccc21 (racemic) [Example 28, N-[3-(6-Fluoro-1-methyl-1,2,3,4-tetrahydro-naphthalen-1-yl)-1H-indol-7-yl]-methanesulfonamide] | ≤ 500 nM
6 | CCC1(c2c[nH]c3c(NS(C)(=O)=O)cccc23)CCCc2cc(F)ccc21 (racemic) [Example 29, N-[3-(1-Ethyl-6-fluoro-1,2,3,4-tetrahydro-naphthalen-1-yl)-1H-indol-7-yl]-methanesulfonamide] | ≤ 500 nM
7 | CCC1(c2c[nH]c3c(NS(C)(=O)=O)cccc23)CCCc2cc(F)cc(F)c21 (racemic) [Example 31, N-[3-(1-Ethyl-6,8-difluoro-1,2,3,4-tetrahydro-naphthalen-1-yl)-1H-indol-7-yl]-methanesulfonamide] | ≤ 500 nM
8 | CC1(c2c[nH]c3c(NS(C)(=O)=O)cccc23)CCOc2cc(F)ccc21 (racemic) [Example 34, N-[3-(7-Fluoro-4-methyl-chroman-4-yl)-1H-indol-7-yl]-methanesulfonamide] | ≤ 500 nM
9 | CCC1(c2c[nH]c3c(NS(C)(=O)=O)cccc23)CCOc2cc(F)ccc21 (racemic) [Example 35, N-[3-(4-Ethyl-7-fluoro-chroman-4-yl)-1H-indol-7-yl]-methanesulfonamide] | ≤ 500 nM
10 | CCC1(c2c[nH]c3c(NS(C)(=O)=O)cccc23)CCOc2cc(F)cc(F)c21 (racemic) [Example 36, N-[3-(4-Ethyl-5,7-difluoro-chroman-4-yl)-1H-indol-7-yl]-methanesulfonamide] | ≤ 500 nM
11 | CS(=O)(=O)Nc1cccc2c(C3(C4CC4)CCc4cc(F)ccc43)c[nH]c12 (racemic) [Example 39, N-[3-(1-Cyclopropyl-5-fluoro-indan-1-yl)-1H-indol-7-yl]-methanesulfonamide] | ≤ 500 nM
12 | CS(=O)(=O)Nc1cccc2c(C3(CCCO)CCc4cc(F)ccc43)c[nH]c12 (racemic) [Example 40, N-{3-[5-Fluoro-1-(3-hydroxy-propyl)-indan-1-yl]-1H-indol-7-yl}-methanesulfonamide] | ≤ 500 nM
13 | CCC1(c2c[nH]c3c(NS(C)(=O)=O)cccc23)CCc2cc(F)ccc21 (single isomer, unassigned) [Example 1A, N-[3-(1-ethyl-5-fluoro-indan-1-yl)-1H-indol-7-yl]-methanesulfonamide] | ≤ 500 nM
14 | CC1(c2c[nH]c3c(NS(C)(=O)=O)cccc23)CCc2cc(F)ccc21 (single isomer, unassigned) [Example 21A, N-[3-(5-Fluoro-1-methyl-indan-1-yl)-1H-indol-7-yl]-methanesulfonamide] | ≤ 500 nM
15 | CC1(c2c[nH]c3c(NS(C)(=O)=O)cccc23)CCc2cc(F)ccc21 (single isomer, unassigned) [Example 21B, N-[3-(5-Fluoro-1-methyl-indan-1-yl)-1H-indol-7-yl]-methanesulfonamide] | ≤ 500 nM
16 | CC1(c2c[nH]c3c(NS(C)(=O)=O)cccc23)CCc2cc(F)cc(F)c21 (single isomer, unassigned) [Example 22A, N-[3-(5,7-Difluoro-1-methyl-indan-1-yl)-1H-indol-7-yl]-methanesulfonamide] | ≤ 500 nM
17 | CC1(c2c[nH]c3c(NS(C)(=O)=O)cccc23)CCc2cc(F)cc(F)c21 (single isomer, unassigned) [Example 22B, N-[3-(5,7-Difluoro-1-methyl-indan-1-yl)-1H-indol-7-yl]-methanesulfonamide] | ≤ 500 nM
18 | CCC1(c2c[nH]c3c(NS(C)(=O)=O)cccc23)CCc2cc(F)cc(F)c21 (single isomer, unassigned) [Example 23A, N-[3-(1-Ethyl-5,7-difluoro-indan-1-yl)-1H-indol-7-yl]-methanesulfonamide] | ≤ 500 nM
19 | CCC1(c2c[nH]c3c(NS(C)(=O)=O)cccc23)CCc2cc(F)cc(F)c21 (single isomer, unassigned) [Example 23B, N-[3-(1-Ethyl-5,7-difluoro-indan-1-yl)-1H-indol-7-yl]-methanesulfonamide] | ≤ 500 nM
20 | CC1(c2c[nH]c3c(NS(C)(=O)=O)cccc23)CCCc2cc(F)ccc21 (single isomer, unassigned) [Example 28A, N-[3-(6-Fluoro-1-methyl-1,2,3,4-tetrahydro-naphthalen-1-yl)-1H-indol-7-yl]-methanesulfonamide] | ≤ 500 nM
21 | CC1(c2c[nH]c3c(NS(C)(=O)=O)cccc23)CCCc2cc(F)ccc21 (single isomer, unassigned) [Example 28B, N-[3-(6-Fluoro-1-methyl-1,2,3,4-tetrahydro-naphthalen-1-yl)-1H-indol-7-yl]-methanesulfonamide] | ≤ 500 nM
22 | CCC1(c2c[nH]c3c(NS(C)(=O)=O)cccc23)CCCc2cc(F)ccc21 (single isomer, unassigned) [Example 29A, N-[3-(1-Ethyl-6-fluoro-1,2,3,4-tetrahydro-naphthalen-1-yl)-1H-indol-7-yl]-methanesulfonamide] | ≤ 500 nM
23 | CCC1(c2c[nH]c3c(NS(C)(=O)=O)cccc23)CCCc2cc(F)ccc21 (single isomer, unassigned) [Example 29B, N-[3-(1-Ethyl-6-fluoro-1,2,3,4-tetrahydro-naphthalen-1-yl)-1H-indol-7-yl]-methanesulfonamide] | ≤ 500 nM
24 | CC1(c2c[nH]c3c(NS(C)(=O)=O)cccc23)CCOc2cc(F)ccc21 (single isomer, unassigned) [Example 34A, N-[3-(7-Fluoro-4-methyl-chroman-4-yl)-1H-indol-7-yl]-methanesulfonamide] | ≤ 500 nM
